Measurements as given in PMC7156458, “Synthetic biology based construction of biological activity-related library of fungal decalin-containing diterpenoid pyrones” (Nature Communications, 2020).

Biological target: Aβ42 (Homo sapiens, UniProt P05067)
Assay: Th-T (thioflavin-T) assay of Aβ42 aggregation
Type: biochemical
Conditions: for Th-T assay plate reading, mean of three wells (Supplementary Fig. 47): source data, Ab alone and No Ab as controls

Chain of Aβ42 (P05067 672-713): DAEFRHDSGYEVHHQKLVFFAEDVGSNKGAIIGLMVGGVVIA

## CC(C)=CCC/C(C)=C/CC/C(C)=C/CC/C(C)=C/Cc1c(O)c(C)c(C)oc1=O [Compound 2]
Aβ42 aggregation time course, reading M117
  Th-T fluorescence, mean of three wells: 2.942
Aβ42 aggregation time course, reading M118
  Th-T fluorescence, mean of three wells: 2.9616
Aβ42 aggregation time course, reading M119
  Th-T fluorescence, mean of three wells: 2.929
Aβ42 aggregation time course, reading M120
  Th-T fluorescence, mean of three wells: 2.963
Aβ42 aggregation time course, reading M121
  Th-T fluorescence, mean of three wells: 2.95
Aβ42 aggregation time course, reading M122
  Th-T fluorescence, mean of three wells: 2.943
Aβ42 aggregation time course, reading M123
  Th-T fluorescence, mean of three wells: 2.95
Aβ42 aggregation time course, reading M124
  Th-T fluorescence, mean of three wells: 2.945
Aβ42 aggregation time course, reading M125
  Th-T fluorescence, mean of three wells: 2.938
Aβ42 aggregation time course, reading M126
  Th-T fluorescence, mean of three wells: 2.934
Aβ42 aggregation time course, reading M127
  Th-T fluorescence, mean of three wells: 2.935
Aβ42 aggregation time course, reading M128
  Th-T fluorescence, mean of three wells: 2.947
Aβ42 aggregation time course, reading M129
  Th-T fluorescence, mean of three wells: 2.9294
Aβ42 aggregation time course, reading M130
  Th-T fluorescence, mean of three wells: 2.914
Aβ42 aggregation time course, reading M131
  Th-T fluorescence, mean of three wells: 2.934
Aβ42 aggregation time course, reading M132
  Th-T fluorescence, mean of three wells: 2.934
Aβ42 aggregation time course, reading M133
  Th-T fluorescence, mean of three wells: 2.945
Aβ42 aggregation time course, reading M134
  Th-T fluorescence, mean of three wells: 2.942
Aβ42 aggregation time course, reading M135
  Th-T fluorescence, mean of three wells: 2.931
Aβ42 aggregation time course, reading M136
  Th-T fluorescence, mean of three wells: 2.912
Supplementary Fig. 47, reading M137
  Th-T fluorescence, mean of three wells: 2.914
Supplementary Fig. 47, reading M138
  Th-T fluorescence, mean of three wells: 2.931
Supplementary Fig. 47, reading M139
  Th-T fluorescence, mean of three wells: 2.919
Supplementary Fig. 47, reading M140
  Th-T fluorescence, mean of three wells: 2.936
Supplementary Fig. 47, reading M141
  Th-T fluorescence, mean of three wells: 2.944
Supplementary Fig. 47, reading M142
  Th-T fluorescence, mean of three wells: 2.9414
Supplementary Fig. 47, reading M143
  Th-T fluorescence, mean of three wells: 2.941
Supplementary Fig. 47, reading M144
  Th-T fluorescence, mean of three wells: 2.932
Supplementary Fig. 47, reading M145
  Th-T fluorescence, mean of three wells: 2.925
Supplementary Fig. 47 source data, measurement M37 of time course
  Th-T fluorescence, mean of three wells: 2.747
Supplementary Fig. 47 source data, measurement M38 of time course
  Th-T fluorescence, mean of three wells: 2.734
Supplementary Fig. 47 source data, measurement M39 of time course
  Th-T fluorescence, mean of three wells: 2.741
Supplementary Fig. 47 source data, measurement M40 of time course
  Th-T fluorescence, mean of three wells: 2.757
Supplementary Fig. 47 source data, measurement M41 of time course
  Th-T fluorescence, mean of three wells: 2.789
Supplementary Fig. 47 source data, measurement M42 of time course
  Th-T fluorescence, mean of three wells: 2.791
Supplementary Fig. 47 source data, measurement M43 of time course
  Th-T fluorescence, mean of three wells: 2.8204
Supplementary Fig. 47 source data, measurement M44 of time course
  Th-T fluorescence, mean of three wells: 2.818
Supplementary Fig. 47 source data, measurement M45 of time course
  Th-T fluorescence, mean of three wells: 2.833
Supplementary Fig. 47 source data, measurement M46 of time course
  Th-T fluorescence, mean of three wells: 2.86
Supplementary Fig. 47 source data, measurement M47 of time course
  Th-T fluorescence, mean of three wells: 2.867
Supplementary Fig. 47 source data, measurement M48 of time course
  Th-T fluorescence, mean of three wells: 2.874
Supplementary Fig. 47 source data, measurement M49 of time course
  Th-T fluorescence, mean of three wells: 2.883
Supplementary Fig. 47 source data, measurement M50 of time course
  Th-T fluorescence, mean of three wells: 2.863
Supplementary Fig. 47 source data, measurement M51 of time course
  Th-T fluorescence, mean of three wells: 2.8662
Supplementary Fig. 47 source data, measurement M52 of time course
  Th-T fluorescence, mean of three wells: 2.876
Supplementary Fig. 47 source data, measurement M53 of time course
  Th-T fluorescence, mean of three wells: 2.889
Supplementary Fig. 47 source data, measurement M54 of time course
  Th-T fluorescence, mean of three wells: 2.875
Supplementary Fig. 47 source data, measurement M55 of time course
  Th-T fluorescence, mean of three wells: 2.914
Supplementary Fig. 47 source data, measurement M56 of time course
  Th-T fluorescence, mean of three wells: 2.914
Measurement M1
  Th-T assay plate reading, mean of three wells (Supplementary Fig. 47): 0.5144
Measurement M2
  Th-T assay plate reading, mean of three wells (Supplementary Fig. 47): 0.4337
Measurement M3
  Th-T assay plate reading, mean of three wells (Supplementary Fig. 47): 0.4376
Measurement M4
  Th-T assay plate reading, mean of three wells (Supplementary Fig. 47): 0.4602
Measurement M5
  Th-T assay plate reading, mean of three wells (Supplementary Fig. 47): 0.5047
Measurement M6
  Th-T assay plate reading, mean of three wells (Supplementary Fig. 47): 0.5652
Measurement M7
  Th-T assay plate reading, mean of three wells (Supplementary Fig. 47): 0.6146
Measurement M8
  Th-T assay plate reading, mean of three wells (Supplementary Fig. 47): 0.6765
Measurement M9
  Th-T assay plate reading, mean of three wells (Supplementary Fig. 47): 0.8275
Measurement M10
  Th-T assay plate reading, mean of three wells (Supplementary Fig. 47): 1.067
Measurement M11
  Th-T assay plate reading, mean of three wells (Supplementary Fig. 47): 1.395
Measurement M12
  Th-T assay plate reading, mean of three wells (Supplementary Fig. 47): 1.75
Measurement M13
  Th-T assay plate reading, mean of three wells (Supplementary Fig. 47): 2.113
Measurement M14
  Th-T assay plate reading, mean of three wells (Supplementary Fig. 47): 2.291
Measurement M15
  Th-T assay plate reading, mean of three wells (Supplementary Fig. 47): 2.38
Measurement M16
  Th-T assay plate reading, mean of three wells (Supplementary Fig. 47): 2.421
Reading M17, Supplementary Fig. 47 source data
  Th-T fluorescence, mean of three wells: 2.473
Reading M18, Supplementary Fig. 47 source data
  Th-T fluorescence, mean of three wells: 2.4977
Reading M19, Supplementary Fig. 47 source data
  Th-T fluorescence, mean of three wells: 2.533
Reading M20, Supplementary Fig. 47 source data
  Th-T fluorescence, mean of three wells: 2.556
Reading M21, Supplementary Fig. 47 source data
  Th-T fluorescence, mean of three wells: 2.585
Reading M22, Supplementary Fig. 47 source data
  Th-T fluorescence, mean of three wells: 2.595
Reading M23, Supplementary Fig. 47 source data
  Th-T fluorescence, mean of three wells: 2.641
Reading M24, Supplementary Fig. 47 source data
  Th-T fluorescence, mean of three wells: 2.62
Reading M25, Supplementary Fig. 47 source data
  Th-T fluorescence, mean of three wells: 2.6309
Reading M26, Supplementary Fig. 47 source data
  Th-T fluorescence, mean of three wells: 2.664
Reading M27, Supplementary Fig. 47 source data
  Th-T fluorescence, mean of three wells: 2.655
Reading M28, Supplementary Fig. 47 source data
  Th-T fluorescence, mean of three wells: 2.667
Reading M29, Supplementary Fig. 47 source data
  Th-T fluorescence, mean of three wells: 2.665
Reading M30, Supplementary Fig. 47 source data
  Th-T fluorescence, mean of three wells: 2.687
Reading M31, Supplementary Fig. 47 source data
  Th-T fluorescence, mean of three wells: 2.687
Reading M32, Supplementary Fig. 47 source data
  Th-T fluorescence, mean of three wells: 2.686
Reading M33, Supplementary Fig. 47 source data
  Th-T fluorescence, mean of three wells: 2.738
Reading M34, Supplementary Fig. 47 source data
  Th-T fluorescence, mean of three wells: 2.752
Reading M35, Supplementary Fig. 47 source data
  Th-T fluorescence, mean of three wells: 2.742
Reading M36, Supplementary Fig. 47 source data
  Th-T fluorescence, mean of three wells: 2.736
Time course, reading M57
  Th-T fluorescence, mean of three wells: 2.932
Time course, reading M58
  Th-T fluorescence, mean of three wells: 2.915
Time course, reading M59
  Th-T fluorescence, mean of three wells: 2.925
Time course, reading M60
  Th-T fluorescence, mean of three wells: 2.927
Time course, reading M61
  Th-T fluorescence, mean of three wells: 2.927
Time course, reading M62
  Th-T fluorescence, mean of three wells: 2.927
Time course, reading M63
  Th-T fluorescence, mean of three wells: 2.935
Time course, reading M64
  Th-T fluorescence, mean of three wells: 2.936
Time course, reading M65
  Th-T fluorescence, mean of three wells: 2.95
Time course, reading M66
  Th-T fluorescence, mean of three wells: 2.938
Time course, reading M67
  Th-T fluorescence, mean of three wells: 2.956
time-course reading M97, Supplementary Fig. 47 source data
  Th-T fluorescence, mean of three wells: 2.938
time-course reading M98, Supplementary Fig. 47 source data
  Th-T fluorescence, mean of three wells: 2.952
time-course reading M99, Supplementary Fig. 47 source data
  Th-T fluorescence, mean of three wells: 2.942
time-course reading M100, Supplementary Fig. 47 source data
  Th-T fluorescence, mean of three wells: 2.953
time-course reading M101, Supplementary Fig. 47 source data
  Th-T fluorescence, mean of three wells: 2.966
time-course reading M102, Supplementary Fig. 47 source data
  Th-T fluorescence, mean of three wells: 2.943
time-course reading M103, Supplementary Fig. 47 source data
  Th-T fluorescence, mean of three wells: 2.949
time-course reading M104, Supplementary Fig. 47 source data
  Th-T fluorescence, mean of three wells: 2.951
time-course reading M105, Supplementary Fig. 47 source data
  Th-T fluorescence, mean of three wells: 2.946
time-course reading M106, Supplementary Fig. 47 source data
  Th-T fluorescence, mean of three wells: 2.949
time-course reading M107, Supplementary Fig. 47 source data
  Th-T fluorescence, mean of three wells: 2.931
time-course reading M108, Supplementary Fig. 47 source data
  Th-T fluorescence, mean of three wells: 2.953
time-course reading M109, Supplementary Fig. 47 source data
  Th-T fluorescence, mean of three wells: 2.942
time-course reading M110, Supplementary Fig. 47 source data
  Th-T fluorescence, mean of three wells: 2.939
time-course reading M111, Supplementary Fig. 47 source data
  Th-T fluorescence, mean of three wells: 2.961
time-course reading M112, Supplementary Fig. 47 source data
  Th-T fluorescence, mean of three wells: 2.955
time-course reading M113, Supplementary Fig. 47 source data
  Th-T fluorescence, mean of three wells: 2.9565
time-course reading M114, Supplementary Fig. 47 source data
  Th-T fluorescence, mean of three wells: 2.9516
time-course reading M115, Supplementary Fig. 47 source data
  Th-T fluorescence, mean of three wells: 2.943
time-course reading M116, Supplementary Fig. 47 source data
  Th-T fluorescence, mean of three wells: 2.94
